Read-outs that look alike come from different tables or passages of the source.
Test: First-in-human Part 2 multiple ascending dose q.d. blood and urine PK
Type: in vivo
Conditions: for Amount recovered / Amount recovered (%): Day 12, urine; for drug accumulation ratio (Racc): day 12 vs day 1, q.d.; for CL renal: blood and urine, Day 12, read-out: Renal clearance
From the text: First-in-human study in up to approximately 168 healthy volunteers (HVs), of which 64 (in Parts 2 & 4) had asymptomatic atopic diathesis. • Part 1 was a double-blind (subject and investigator blind, sponsor unblinded), placebo-controlled single ascending dose (SAD) escalation study of 10 cohorts (N=80) • Part 2 was a double-blind (subject and investigator blind, sponsor unblinded), placebo-controlled multiple ascending dose (MAD) (13 doses over 12 days) escalation study employing once daily dosing in 6 cohorts in healthy volunteers with asymptomatic atopic diathesis (N=48) • Part 3 was a single dose open-label crossover food effect study in 12 HVs • Part 4 was a double-blind (subject and investigator blind, sponsor unblinded), placebo-controlled multiple dose (25 doses over 12 days) study employing twice daily dosing in 2 cohorts of healthy volunteers with asymptomatic atopic diathesis (N=16)
In Parts 2 and 4, subjects were admitted on Day −2 or −1 for baseline safety assessments and to confirm eligibility. Eligible subjects received the first dose of compound (I) under fasting conditions on Day 1, and continued to take study medication under fasting conditions up to and including Day 12. Subjects were domiciled from Day −2 or −1 until the morning of Day 16, which equals 96 hours after the last dose of compound (I) was received. In Parts 2 and 4, the study medication was given once daily and twice daily respectively (details are found in the schedule of assessments).
Subjects were assigned to one of the following 6 cohorts. In each cohort, 8 subjects were randomized to either compound (I) or matching placebo in a 6:2 ratio. • Cohort 1: multiple oral doses of 10 mg compound (I) or matching placebo • Cohort 2: multiple oral doses of 25 mg compound (I) or matching placebo • Cohort 3: multiple oral doses of 50 mg compound (I) or matching placebo • Cohort 4: multiple oral doses of 100 mg compound (I) or matching placebo • Cohort 5: multiple oral doses of 400 mg compound (I) or matching placebo • Cohort 6: multiple oral doses of up to 600 mg compound (I) or matching placebo
Pharmacokinetic samples were obtained in blood and evaluated in all subjects at all dose levels. The samples from placebo subjects were not analyzed. The samples for PK assessments from subjects were collected at time points defined in the study. Compound (I) concentrations were determined in blood by a validated LC-MS/MS method.

[1] = 10 mg qd, Day 12, blood, Mean ± SD
[2] = 25 mg qd, Day 12, blood, Mean ± SD
[3] = 50 mg qd, Day 12, blood, Mean ± SD
[4] = 50 mg qd, Day 12, blood, Median (Min-Max)
[5] = 100 mg qd, Day 1, blood, Mean ± SD
[6] = 100 mg qd, Day 1, blood, Median (Min-Max)
[7] = 100 mg qd, Day 12, blood, Mean ± SD
[8] = 400 mg qd, Day 1, blood, Mean ± SD
[9] = 400 mg qd, Day 12, blood, Mean ± SD
[10] = 600 mg qd, Day 1, blood, Mean ± SD
[11] = 600 mg qd, Day 12, blood, Mean ± SD

SMILES: C=CC(=O)N(C)CCOc1c(N)ncnc1-c1cc(F)cc(NC(=O)c2ccc(C3CC3)cc2F)c1C [Compound of Formula (I), N-(3-(6-Amino-5-(2-(N-methylacrylamido)ethoxy)pyrimidin-4-yl)-5-fluoro-2-methylphenyl)-4-cyclopropyl-2-fluorobenzamide]
- Cmax (10 mg qd, Day 1, blood, Mean ± SD): 8.40 ± 2.02 ng/mL
- CLss/F [1]: 425 ± 64.8 L/h
- Cmax [1]: 18.2 ± 5.90 ng/mL
- CLss/F (10 mg qd, Day 12, blood, Median (Min-Max)): 423 (341-529) L/h
- Amount recovered (10 mg qd, Mean ± SD): 0.0663 ± 0.0309 mg
- Amount recovered (%) (10 mg qd, Mean ± SD): 0.663 ± 0.309%
- Amount recovered (10 mg qd, Median (Min-Max)): 0.0630 mg
- Cmax (25 mg qd, Day 1, blood, Mean ± SD): 40.9 ± 21.6 ng/mL
- CLss/F [2]: 307 ± 253 L/h
- Cmax [2]: 85.9 ± 31.5 ng/mL
- CLss/F (25 mg qd, Day 12, blood, Median (Min-Max)): 248 (129-809) L/h
- Amount recovered (25 mg qd, Mean ± SD): 0.114 ± 0.0706 mg
- Amount recovered (%) (25 mg qd, Mean ± SD): 0.456 ± 0.283%
- Cmax (50 mg qd, Day 1, blood, Mean ± SD): 76.5 ± 22.0 ng/mL
- CLss/F [3]: 268 ± 92.8 L/h
- Cmax [3]: 102 ± 22.0 ng/mL
- CLss/F [4]: 276 (154-395) L/h
- Cmax [4]: 100 (73.3-131) ng/mL
- Amount recovered (50 mg qd, Mean ± SD): 0.233 ± 0.0880 mg
- Amount recovered (%) (50 mg qd, Mean ± SD): 0.467 ± 0.176%
- AUC0-24 [5]: 315 ± 91.5 ng·h/mL
- AUClast [5]: 311 ± 89.1 ng·h/mL
- Cmax [5]: 187 ± 85.0 ng/mL
- MRT [5]: 2.79 ± 1.28 h
- AUC0-24 [6]: 338 (168-419) h*ng/mL
- AUClast [6]: 333 (168-416) h*ng/mL
- Cmax [6]: 189 (75.6-285) ng/mL
- AUC0-24 [7]: 485 ± 179 ng·h/mL
- AUClast [7]: 488 ± 172 ng·h/mL
- CLss/F [7]: 198 ± 88.7 L/h
- Cmax [7]: 233 ± 84.1 ng/mL
- CLss/F (100 mg qd, Day 12, blood, Median (Min-Max)): 166 (129-298) L/h
- Amount recovered (100 mg qd, Mean ± SD): 0.648 ± 0.330 mg
- Amount recovered (%) (100 mg qd, Mean ± SD): 0.648 ± 0.330%
- AUC0-24 [8]: 977 ± 378 ng·h/mL
- AUClast [8]: 973 ± 379 ng·h/mL
- Cmax [8]: 518 ± 89.1 ng/mL
- MRT [8]: 3.02 ± 1.11 h
- Cmax (400 mg qd, Day 1, blood, Median (Min-Max)): 513 (383-622) ng/mL
- AUC0-24 [9]: 1280 ± 577 ng·h/mL
- AUClast [9]: 1300 ± 602 ng·h/mL
- CLss/F [9]: 366 ± 150 L/h
- Cmax [9]: 551 ± 263 ng/mL
- CLss/F (400 mg qd, Day 12, blood, Median (Min-Max)): 351 (177-591) L/h
- Amount recovered (400 mg qd, Mean ± SD): 1.25 ± 0.647 mg
- Amount recovered (%) (400 mg qd, Mean ± SD): 0.313 ± 0.162%
- AUC0-24 [10]: 1080 ± 377 ng·h/mL
- AUClast [10]: 1080 ± 377 ng·h/mL
- Cmax [10]: 550 ± 87.6 ng/mL
- MRT [10]: 3.14 ± 0.580 h
- Cmax (600 mg qd, Day 1, blood, Median (Min-Max)): 545 (461-691) ng/mL
- AUC0-24 [11]: 1230 ± 356 ng·h/mL
- AUClast [11]: 1240 ± 341 ng·h/mL
- CLss/F [11]: 521 ± 131 L/h
- Cmax [11]: 563 ± 229 ng/mL
- CLss/F (600 mg qd, Day 12, blood, Median (Min-Max)): 569 (345-661) L/h
- Amount recovered (600 mg qd, Mean ± SD): 1.54 ± 0.915 mg
- Amount recovered (%) (600 mg qd, Mean ± SD): 0.257 ± 0.153%
- drug accumulation ratio (Racc) (high dose): 1.2
- drug accumulation ratio (Racc) (low dose): 5
- CL renal (human, oral, 10 mg, 10 mg qd, Mean ± SD): 45.3 ± 18 mL/min
- CL renal (human, oral, 10 mg, 10 mg qd, Median (Min-Max)): 41.6 mL/min
- CL renal (human, oral, 25 mg, 25 mg qd, Mean ± SD): 16.8 ± 6.81 mL/min
- CL renal (human, oral, 25 mg, 25 mg qd, Median (Min-Max)): 18.9 mL/min
- CL renal (human, oral, 50 mg, 50 mg qd, Mean ± SD): 20.4 ± 2.4 mL/min
- CL renal (human, oral, 50 mg, 50 mg qd, Median (Min-Max)): 20.5 mL/min
- CL renal (human, oral, 100 mg, 100 mg qd, Mean ± SD): 21.6 ± 5.41 mL/min
- CL renal (human, oral, 100 mg, 100 mg qd, Median (Min-Max)): 21.1 mL/min
- CL renal (human, oral, 400 mg, 400 mg qd, Mean ± SD): 16.9 ± 7.13 mL/min
- CL renal (human, oral, 400 mg, 400 mg qd, Median (Min-Max)): 14.5 mL/min
- CL renal (human, oral, 600 mg, 600 mg qd, Mean ± SD): 20 ± 8.25 mL/min
- CL renal (human, oral, 600 mg, 600 mg qd, Median (Min-Max)): 18.1 mL/min
- AUC(0-t) (human, blood, oral, 10 mg, 10 mg qd, Day 1, blood, Mean ± SD, read-out: AUC0-24): 4.94 ± 1.35 ng·h/mL
- AUC(0-t) (human, blood, oral, 10 mg, 10 mg qd, Day 1, blood, Mean ± SD, read-out: AUClast): 4.17 ± 1.38 ng·h/mL
- MRT (human, blood, oral, 10 mg, 10 mg qd, Day 1, blood, Mean ± SD, read-out: MRT): 0.761 ± 0.151 h
- Tmax (human, blood, oral, 10 mg, 10 mg qd, Day 1, blood, Median (Min-Max)): 31 min
- AUC(0-t) (human, blood, oral, 10 mg, 10 mg qd, Day 1, blood, Median (Min-Max), read-out: AUC0-24): 4.94 ng·h/mL

From patent publication US12383556B2, “Methods of treating Sjögren's syndrome using a Bruton's tyrosine kinase inhibitor” (NOVARTIS AG, priority 2019, dated 2025)
